Experimental data as given in patent US20240217990A1 (Gilead Sciences, Inc., priority 2021, published 2024).

Assays:
TLR8 = biological target: T1, TLR8 (Homo sapiens, UniProt Q9NR97); test: TLR8 human PBMC cell-based assay (antagonist, Compound A stimulated cytokine release); settings: human PBMCs; TLR8 agonist Compound A 800 nM, 6 hours; cytokines (TNFa and IL 12p40) in supernatant; read-out: TLR-8 EC50
T1 construct: Human peripheral blood mononuclear cells (PBMCs) consist of lymphocytes, monocytes and dendritic cells that express TLR7, TLR8 and TLR9; endogenous in cells; host or cells: cryopreserved human PBMCs from healthy donors
T1 sequence (Q9NR97 27-1041): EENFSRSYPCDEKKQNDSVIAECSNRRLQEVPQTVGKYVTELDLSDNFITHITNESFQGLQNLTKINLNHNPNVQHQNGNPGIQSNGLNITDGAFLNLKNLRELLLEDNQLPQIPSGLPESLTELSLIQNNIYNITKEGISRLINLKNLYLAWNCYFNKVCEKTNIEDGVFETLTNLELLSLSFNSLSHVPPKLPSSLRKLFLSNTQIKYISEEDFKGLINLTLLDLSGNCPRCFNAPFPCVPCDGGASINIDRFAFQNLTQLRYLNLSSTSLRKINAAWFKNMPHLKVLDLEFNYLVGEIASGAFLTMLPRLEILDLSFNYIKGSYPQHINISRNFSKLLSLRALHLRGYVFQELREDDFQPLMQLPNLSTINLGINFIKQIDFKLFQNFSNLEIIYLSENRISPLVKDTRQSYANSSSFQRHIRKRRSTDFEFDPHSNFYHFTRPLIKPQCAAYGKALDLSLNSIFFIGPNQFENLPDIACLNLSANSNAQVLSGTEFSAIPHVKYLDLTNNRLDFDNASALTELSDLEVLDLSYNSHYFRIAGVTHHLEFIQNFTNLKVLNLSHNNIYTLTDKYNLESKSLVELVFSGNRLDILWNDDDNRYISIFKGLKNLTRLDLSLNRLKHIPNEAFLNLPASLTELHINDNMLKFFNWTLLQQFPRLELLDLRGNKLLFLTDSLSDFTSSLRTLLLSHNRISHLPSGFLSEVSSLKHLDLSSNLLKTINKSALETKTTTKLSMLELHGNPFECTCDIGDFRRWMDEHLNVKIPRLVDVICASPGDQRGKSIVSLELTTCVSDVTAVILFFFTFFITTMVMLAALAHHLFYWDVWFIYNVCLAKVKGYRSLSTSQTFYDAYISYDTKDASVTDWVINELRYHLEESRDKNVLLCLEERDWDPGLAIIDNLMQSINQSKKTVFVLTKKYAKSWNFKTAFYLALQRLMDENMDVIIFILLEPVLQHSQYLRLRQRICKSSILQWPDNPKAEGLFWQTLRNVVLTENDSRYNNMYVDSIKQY
Outline: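 Cryopreserved donor PBMCs (100,000/well, RPMI + 10% FBS) were preincubated 1 h with antagonist (10-point dose response, quadruplicate), then stimulated with Compound A (800 nM final) for 6 h at 37 °C. TNFa and IL-12p40 in supernatants were measured by electrochemiluminescence; sigmoidal fits gave EC50.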

TLR7 = biological target: T2, TLR7 (Homo sapiens, UniProt Q9NYK1); test: TLR7 human PBMC cell-based assay (antagonist, GS-986 stimulated cytokine release); settings: human PBMCs; TLR7 agonist GS-986 400 nM, 6 hours; cytokines (IL-6 and IFNα) in supernatant; read-out: TLR-7 EC50
T2 construct: Human peripheral blood mononuclear cells (PBMCs) consist of lymphocytes, monocytes and dendritic cells that express TLR7, TLR8 and TLR9; endogenous in cells; host or cells: cryopreserved human PBMCs from healthy donors
T2 sequence (Q9NYK1 27-1049): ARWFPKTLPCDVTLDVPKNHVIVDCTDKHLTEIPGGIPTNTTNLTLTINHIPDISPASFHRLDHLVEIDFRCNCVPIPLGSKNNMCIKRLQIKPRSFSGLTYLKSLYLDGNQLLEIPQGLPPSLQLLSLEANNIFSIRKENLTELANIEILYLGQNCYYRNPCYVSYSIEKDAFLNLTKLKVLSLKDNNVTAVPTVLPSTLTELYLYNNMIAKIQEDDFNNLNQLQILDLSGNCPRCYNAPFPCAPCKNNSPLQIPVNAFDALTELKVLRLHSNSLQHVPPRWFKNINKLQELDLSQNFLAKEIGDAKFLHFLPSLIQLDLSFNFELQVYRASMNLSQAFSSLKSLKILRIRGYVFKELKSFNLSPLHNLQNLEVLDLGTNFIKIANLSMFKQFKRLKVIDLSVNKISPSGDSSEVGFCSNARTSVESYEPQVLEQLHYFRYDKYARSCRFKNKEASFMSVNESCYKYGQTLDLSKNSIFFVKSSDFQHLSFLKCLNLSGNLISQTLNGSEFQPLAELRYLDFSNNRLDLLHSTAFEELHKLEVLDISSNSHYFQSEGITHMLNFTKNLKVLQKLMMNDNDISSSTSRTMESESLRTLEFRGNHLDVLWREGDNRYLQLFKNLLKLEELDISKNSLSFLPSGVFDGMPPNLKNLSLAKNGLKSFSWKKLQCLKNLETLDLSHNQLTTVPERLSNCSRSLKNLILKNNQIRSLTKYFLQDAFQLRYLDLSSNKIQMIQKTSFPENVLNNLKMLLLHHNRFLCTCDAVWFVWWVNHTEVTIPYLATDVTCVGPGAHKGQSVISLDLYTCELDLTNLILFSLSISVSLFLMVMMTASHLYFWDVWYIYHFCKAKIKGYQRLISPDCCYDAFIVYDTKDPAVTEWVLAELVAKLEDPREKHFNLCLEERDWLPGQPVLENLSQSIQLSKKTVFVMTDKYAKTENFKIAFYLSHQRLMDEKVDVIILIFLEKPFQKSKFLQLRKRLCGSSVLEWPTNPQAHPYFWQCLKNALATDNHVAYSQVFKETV
Outline: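 Cryopreserved healthy-donor PBMCs (100,000/well, RPMI-1640 + 10% FBS) pre-incubated 1 h at 37 °C with antagonist (10-point dose response, quadruplicate), then stimulated 6 h with GS-986 at 400 nM final. Supernatant IL-6 and IFNα measured by electrochemiluminescence immunoassay; EC50 from sigmoidal fit.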

EC50 (TLR8)	EC50 (TLR7)	SMILES
4.1 nM	0.8 nM	Cc1cc(-c2[nH]c3cc(C(=O)N4CCC5(CCN(CC(N)=O)C5)CC4)sc3c2C(C)C)cn2ncnc12 [Example 175]
30.8 nM	4.1 nM	Cc1cc(-c2[nH]c3cc(C(=O)N(C)[C@@H]4CNC[C@H]4F)sc3c2C(C)C)cn2ncnc12 [Example 60]
1.7 nM	15.4 nM	Cc1cc(-c2[nH]c3cc(-c4ccc5c(c4)CNC5)sc3c2C(C)C)cn2ncnc12 [Example 209, 2-(isoindolin-5-yl)-6-isopropyl-5-(8-methyl-[1,2,4]triazolo[1,5-a]pyridin-6-yl)-4H-thieno[3,2-b]pyrrole]
2.06 nM	0.5 nM	Cc1cc(-c2[nH]c3cc(C4CC5(CCN(CC(N)=O)CC5)C4)sc3c2C(C)C)cn2ncnc12 [Example 304]
2.4 nM	152 nM	Cc1cc(-c2[nH]c3cc(C(=O)N4CC(N(C)C)C4)sc3c2C(C)C)cn2ncnc12 [Example 147]
9.9 nM	1 nM	Cc1cc(-c2[nH]c3cc(C(=O)N4CCC5CCNC5C4)sc3c2C(C)C)cn2ncnc12 (stereo not shown) [Example 90]
51.2 nM	35 nM	Cc1cc(-c2[nH]c3cc(CN4CC5(C4)CS(=O)(=O)C5)sc3c2C(C)C)cn2ncnc12 [Example 271]
11.2 nM	1.2 nM	Cc1nn(C2CCNCC2)cc1-c1cc2[nH]c(-c3cc(C)c4ncnn4c3)c(C(C)C)c2s1 [Example 220]
79.7 nM	33.1 nM	Cc1cc(-c2[nH]c3cc(C4CCN(C(=O)C5(N)CCC5)CC4)sc3c2C(C)C)cn2ncnc12 [Example 197]
0.5 nM	2.4 nM	Cc1cc(-c2[nH]c3cc(-c4cnc5c(c4)CN(CCO)CC5)sc3c2C(C)C)cn2ncnc12 [Example 190]
14.7 nM	26.5 nM	Cc1cc(-c2[nH]c3cc(C(=O)N(C)C4CCN(CCC(F)(F)F)CC4)sc3c2C(C)C)cn2ncnc12 [Example 269, 6-isopropyl-N-methyl-5-(8-methyl-[1,2,4]triazolo[1,5-a]pyridin-6-yl)-N-[1-(3,3,3-trifluoropropyl)-4-piperidyl]-4H-thieno[3,2-b]pyrrole-2-carboxamide]
14.2 nM	2.8 nM	Cc1cc(-c2[nH]c3cc(-c4nc5ccc(N6CCNCC6)cc5n4C)sc3c2C(C)C)cn2ncnc12 [Example 238]
67.2 nM	200 nM	Cc1cc(-c2[nH]c3cc(C(=O)N4CC5CC(C4)N5)sc3c2C(C)C)cc(C)n1 [Example 18]
14.9 nM	7.6 nM	Cc1cc(-c2[nH]c3cc(-c4nc(C5CCNCC5)no4)sc3c2C(C)C)cc(C)n1 [Example 55]
19.5 nM	7.6 nM	Cc1cc(-c2[nH]c3cc(C(=O)N(C)C4CCC(N5CC6CCC(C5)O6)CC4)sc3c2C(C)C)cn2ncnc12 (stereo not shown) [Example 248]
17.1 nM	0.95 nM	Cc1cc(-c2[nH]c3cc(C4C5CCC4CN(CC(N)=O)C5)sc3c2C(C)C)cn2ncnc12 (stereo not shown) [Example 309, 2-(8-(6-isopropyl-5-(8-methyl-[1,2,4]triazolo[1,5-a]pyridin-6-yl)-4H-thieno[3,2-b]pyrrol-2-yl)-3-azabicyclo[3.2.1]octan-3-yl)acetamide]
16 nM	74.7 nM	Cc1cc(-c2[nH]c3cc(-c4nnc(N5CCNCC5)o4)sc3c2C(C)C)cc(C)n1 [Example 53]
10.6 nM	7.8 nM	Cc1cc(-c2[nH]c3cc(C(=O)N4CCC[C@@H]4CN(C)C)sc3c2C(C)C)cn2ncnc12 [Example 104]

EC50 (TLR8)	EC50 (TLR7)	SMILES
9.7 nM	2.2 nM	Cc1cc(-c2[nH]c3cc(C4CCC(NC5CC6CC5O6)CC4)sc3c2C(C)C)cn2ncnc12 (stereo not shown) [Example 261]
72.9 nM	60 nM	Cc1cc(-c2[nH]c3cc(C(=O)N4C5CNCC4COC5)sc3c2C(C)C)cc(C)n1 [Example 15]
3 nM	9.7 nM	Cc1cc(-c2[nH]c3cc(C(=O)N4CCNCC4)sc3c2C(C)C)cn(C)c1=O [Example 34]
53.7 nM	77.7 nM	Cc1cc(-c2[nH]c3cc(C(=O)N4C5CNCC4C5)sc3c2C(C)C)cc(C)n1 [Example 19]
0.7 nM	1.3 nM	Cc1cc(-c2[nH]c3cc(-c4cnn(C5CCN(CCO)CC5)c4)sc3c2C(C)C)cn2ncnc12 [Example 189]
41.2 nM	46.1 nM	Cc1cc(-c2[nH]c3cc(C(=O)N4CCC(O)CC4)sc3c2C(C)C)cn2ncnc12 [Example 44]
9.9 nM	0.4 nM	CCN(C(=O)c1cc2[nH]c(-c3cc(C)c4ncnn4c3)c(C(C)C)c2s1)C1CCNCC1 [Example 135]
40.3 nM	9 nM	Cc1cc(-c2[nH]c3cc(C(=O)N4C[C@@H](N)C[C@@H](C(F)(F)F)C4)sc3c2C(C)C)cn2ncnc12 [Example 77]
12 nM	3 nM	Cc1cc(-c2[nH]c3cc(C(=O)N(C)C4CCC(N5CCN(CC(F)F)CC5)CC4)sc3c2C(C)C)cn2ncnc12 (stereo not shown) [Example 249]
1.6 nM	0.2 nM	Cc1cc(-c2[nH]c3cc(-c4ccc5nc(C6N[C@@H]7CC[C@H]6C7)[nH]c5c4)sc3c2C(C)C)cn2ncnc12 (stereo partly shown) [Example 212]
31.7 nM	355 nM	Cc1cc(-c2[nH]c3cc(C(=O)N4CCN(CCO)CC4)sc3c2C(C)C)cc(C)n1 [Example 45]
8.6 nM	0.4 nM	Cc1cc(-c2[nH]c3cc(C(=O)N(C)[C@H]4CCNC[C@@H]4F)sc3c2C(C)C)cn2ncnc12 [Example 78]
68 nM	19.9 nM	Cc1cc(-c2[nH]c3cc(C(=O)N(C)[C@H]4CCNC4)sc3c2C(C)C)cc(C)n1 [Example 23]
11.7 nM	1.32 nM	Cc1cc(-c2[nH]c3cc(C4CC5CCC4CN5)sc3c2C(C)C)cn2ncnc12 (stereo not shown) [Example 282]
0.3 nM	42.4 nM	Cc1cc(-c2[nH]c3cc(C(=O)N4CCN[C@@H](c5ccccc5)C4)sc3c2C(C)C)cn2ncnc12 [Example 119]
11.9 nM	2.3 nM	Cc1cc(-c2[nH]c3cc(C4CCC(N5CCC(OC(F)F)C5)CC4)sc3c2C(C)C)cn2ncnc12 (stereo not shown) [Example 258]
12.3 nM	3 nM	Cc1cc(-c2[nH]c3cc(C(=O)N4C[C@H](N)[C@@H]5CC[C@H]4C5)sc3c2C(C)C)cn2ncnc12 [Example 91]
